Measured values published in article PMC3059997, “Exploring Indirect Sources of Human Exposure to Perfluoroalkyl Carboxylates (PFCAs): Evaluating Uptake, Elimination, and Biotransformation of Polyfluoroalkyl Phosphate Esters (PAPs) in the Rat” (Environmental Health Perspectives, 2010).

Assays:
Type in all cases: in vivo, Sprague-Dawley rats
[1] = Uptake experiment: diPAP mixture by oral gavage, analytes in whole blood; details: for Cmax: values in parentheses < LOQ but > LOD
Procedure: (§1) This research was conducted under an animal use protocol approved by the University of Toronto Animal Care Committee. All animals were treated humanely and with regard for alleviation of suffering. Sprague-Dawley rats were obtained from Charles River Laboratories Inc. (Sherbrooke, QC, Canada) The animals were singly housed and exposed to a 12/12 hr light/dark cycle with food and water available ad libitum. Blood samples were collected from the saphenous vein using Microvette CB 300 vials (Sarstedt AG & Co., Montreal, QC, Canada) embedded with lithium-heparin as an anticoagulant. Whole-blood samples were stored at −20°C, and urine and feces samples were stored at 4°C.
(§2) Two groups of four 8-week-old male rats were administered a mixture of 4:2, 6:2, 8:2, and 10:2 diPAP or monoPAP, respectively, each at about 50 mg/kg, at 4 mL/kg by oral gavage without prior fasting. […] Two control male rats were administered clean vehicle at 4 mL/kg [for details, see Supplemental Material, Table 3 (doi:10.1289/ehp.1002409)].
(§3) Blood was collected from all animals 3 days before dosing to establish background contamination. For the uptake experiment, blood samples were collected at 1, 3, and 6 hr and 1, 2, 4, 7, 10, 14, 18, and 22 days after dosing. For the elimination experiment, blood samples were collected at 2, 4, and 6 hr and 1, 2, 4, 8, 11, 15, and 18 days after dosing. On the final sampling day, the animals were sacrificed by carbon dioxide asphyxiation, and about 10 mL of blood was collected by cardiac puncture into a BD Vacutainer embedded with lithium-heparin.
(§4) The compounds of interest fall into four categories: a) the diPAP and monoPAP parent compounds, b) the saturated and unsaturated fluorotelomer carboxylic acid (FTCA and FTUCA) metabolic intermediates, c) the FTOH-sulfate and FTOH-glucuronide phase II metabolites, and d) the final PFCA biotransformation products [see Supplemental Material, Table 1 (doi:10.1289/ehp.1002409)]. We analyzed these compounds in whole blood, urine, and feces samples. For full analytical details, see Supplemental Material. All PFCAs, FTCAs, FTUCAs, and phase II metabolites were quantified by internal calibration. Because internal standards were not available, monoPAPs and diPAPs were quantified by standard addition. We performed spike and recovery experments to validate the extraction and quantification techniques used (for details, see Supplemental Material).
(§5) Analyte and matrix specific limits of detection (LODs) and limits of quantification (LOQs) are provided in Supplemental Material (doi:10.1289/ehp.1002409). For the purpose of calculating means, values < LOD were assigned a value of zero, and values < LOQ but > LOD were used unaltered but are indicated by asterisks in figures and parentheses in tables. Values are presented using the arithmetic mean ± SE. Full data sets are available in Supplemental Material. […]

[2] = Elimination experiment: monoPAP mixture by IV injection, analytes in whole blood; details: for Cmax / Tmax: whole blood
Procedure: as §1
(§6) Two groups of four 8-week-old male rats were administered a mixture of 4:2, 6:2, 8:2, and 10:2 diPAP or monoPAP, respectively, each at about 15 mg/kg, at 2 mL/kg by intravenous (IV) injection into the lateral tail vein. The dosing vehicle was 50:50 propylene glycol:water. Two control male rats were administered clean vehicle at 2 mL/kg [for details see Supplemental Material, Table 3 (doi:10.1289/ehp.1002409)].
as §3, §4
(§7) Analyte and matrix specific limits of detection (LODs) and limits of quantification (LOQs) are provided in Supplemental Material (doi:10.1289/ehp.1002409). For the purpose of calculating means, values < LOD were assigned a value of zero, and values < LOQ but > LOD were used unaltered but are indicated by asterisks in figures and parentheses in tables. Values are presented using the arithmetic mean ± SE. Full data sets are available in Supplemental Material.

[3] = Elimination experiment: diPAP mixture by IV injection, analytes in whole blood
Procedure: as §1, §6, §3, §4, §5

[4] = Uptake experiment: monoPAP mixture by oral gavage, analytes in whole blood
Procedure: as §1, §2, §3, §4, §7

[5] = Renal elimination: analytes in urine collected in metabolic cages
Procedure: as §1, with “4°C. […]” for “4°C.”
as §4, with “For full analytical details, see Supplemental Material.” left out, “We performed spike and recovery experments to validate the extraction and quantification techniques used (for details, see Supplemental Material).” left out

[6] = diPAP gavage dose, whole blood, mean ± SE
[7] = diPAP IV dose, whole blood, mean ± SE, values in parentheses < LOQ but > LOD
[8] = monoPAP gavage dose, whole blood
[9] = monoPAP gavage dose, whole blood, values in parentheses < LOQ but > LOD

Compound: O=C(O)CC(F)(F)C(F)(F)C(F)(F)C(F)(F)F [4:2 FTCA]
- Detection in blood (time points) ([1]; after diPAP oral gavage): 6 hr postdosing, but in only one animal
- Detection in blood (time points) ([2]; after monoPAP IV dosing): 2 hr postdosing

Compound: O=C(O)[C@H]1O[C@@H](OCCC(F)(F)C(F)(F)C(F)(F)C(F)(F)F)[C@H](O)[C@@H](O)[C@@H]1O [4:2 FTOH-glucuronide]
- Detection in blood (time points) ([3]; rat, in vivo, iv): in the blood 2 hr postdosing
- Detection in blood (time points) ([4]; rat, in vivo, po): observed at 2 hr and 6 hr postdosing
- Detection in blood (time points) ([2]; rat, in vivo, iv): in the blood 2 hr after dosing
- Observation in urine ([5]; rat, in vivo): consistently observed

Compound: O=S(=O)(O)OCCC(F)(F)C(F)(F)C(F)(F)C(F)(F)F [4:2 FTOH-sulfate]
- Detection in blood (time points) ([3]; after IV diPAP dosing): in the blood 2 hr postdosing
- Detection in blood (time points) ([2]; after monoPAP IV dosing): in the blood 2 hr after dosing
- Observation in urine ([5]; urine samples from all dosing regimes): consistently observed

Compound: O=C(O)C=C(F)C(F)(F)C(F)(F)C(F)(F)F [4:2 FTUCA]
- Detection in blood (time points) ([1]; rat, in vivo, po): 6 hr postdosing, but in only one animal
- Detection in blood (time points) ([2]; rat, in vivo, iv): 2 hr postdosing

Compound: O=C(O)CCC(F)(F)C(F)(F)C(F)(F)C(F)(F)C(F)(F)F [5:3 FTCA]
- Detection in blood (time points) ([3]; after IV diPAP dosing): in the samples from 2 hr to 2 days postdosing
- Detection in blood (time points) ([4]; after monoPAP oral gavage): present in all of the samples from 2 hr to 2 days postdosing
- Detection in blood (time points) ([2]; after monoPAP IV dosing): observed in the 2, 4, and 6-hr time points

Compound: O=C(O)CC(F)(F)C(F)(F)C(F)(F)C(F)(F)C(F)(F)C(F)(F)F [6:2 FTCA]
- Detection in blood (time points) ([1]; after diPAP oral gavage): 6 hr postdosing, but in only one animal
- Detection in blood (time points) ([4]; after monoPAP oral gavage): blood samples taken 2, 4, and 6 hr postdosing
- Detection in blood (time points) ([2]; after monoPAP IV dosing): 2 hr postdosing

Compound: O=C(O)[C@H]1O[C@@H](OCCC(F)(F)C(F)(F)C(F)(F)C(F)(F)C(F)(F)C(F)(F)F)[C@H](O)[C@@H](O)[C@@H]1O [6:2 FTOH-glucuronide]
- Detection in blood (time points) ([4]; rat, in vivo, po): observed at 2 hr and 6 hr postdosing

Compound: O=C(O)C=C(F)C(F)(F)C(F)(F)C(F)(F)C(F)(F)C(F)(F)F [6:2 FTUCA]
- Detection in blood (time points) ([1]; rat, in vivo, po): 6 hr postdosing, but in only one animal
- Detection in blood (time points) ([2]; rat, in vivo, iv): observed in the 2, 4, and 6-hr time points

Compound: O=C(O)CCC(F)(F)C(F)(F)C(F)(F)C(F)(F)C(F)(F)C(F)(F)C(F)(F)F [7:3 FTCA]
- Detection in blood (time points) ([4]; after monoPAP oral gavage): present in all of the samples from 2 hr to 2 days postdosing

Compound: O=C(O)CC(F)(F)C(F)(F)C(F)(F)C(F)(F)C(F)(F)C(F)(F)C(F)(F)C(F)(F)F [8:2 FTCA]
- Detection in blood (time points) ([1]; after diPAP oral gavage): 6 hr postdosing, but in only one animal
- Detection in blood (time points) ([4]; after monoPAP oral gavage): blood samples taken 2, 4, and 6 hr postdosing

Compound: O=S(=O)(O)OCCC(F)(F)C(F)(F)C(F)(F)C(F)(F)C(F)(F)C(F)(F)C(F)(F)C(F)(F)F [8:2 FTOH-sulfate]
- Detection in blood (time points) ([4]; after monoPAP oral gavage): frequently detected between 6 hr and 2 days postdosing

Compound: O=C(O)CC(F)(F)C(F)(F)C(F)(F)C(F)(F)C(F)(F)C(F)(F)C(F)(F)C(F)(F)C(F)(F)C(F)(F)F [10:2 FTCA]
- Detection in blood (time points) ([1]; after diPAP oral gavage): present in the blood at the 6-hr time point
- Detection in blood (time points) ([3]; after IV diPAP dosing): only in the sample collected 2 days after dosing

Compound: O=S(=O)(O)OCCC(F)(F)C(F)(F)C(F)(F)C(F)(F)C(F)(F)C(F)(F)C(F)(F)C(F)(F)C(F)(F)C(F)(F)F [10:2 FTOH-sulfate]
- Detection in blood (time points) ([1]; after diPAP oral gavage): at 1 and 2 days after dosing
- Detection in blood (time points) ([4]; after monoPAP oral gavage): frequently detected between 6 hr and 2 days postdosing

Compound: O=C(O)C(F)(F)C(F)(F)C(F)(F)C(F)(F)C(F)(F)C(F)(F)C(F)(F)C(F)(F)C(F)(F)F [PFDA, perfluorodecanoate]
- Half-life ([1]; diPAP gavage dose, about 50 mg/kg each, whole blood, mean ± SE): 264 ± 48 h
- Tmax ([1]; diPAP gavage dose, whole blood): 1 day days
- Cmax [1, 6]: 3.6 ± 0.6 ng/g
- Half-life ([3]; diPAP IV dose, about 15 mg/kg each, whole blood, mean ± SE): 240 ± 48 h
- Tmax ([3]; diPAP IV dose, whole blood): 48 h
- Cmax [3, 7]: 6.2 ± 1.2 ng/g
- Half-life ([4]; monoPAP gavage dose, about 50 mg/kg each, PFCA product in whole blood): 288 ± 190 h
- Tmax [4, 8]: 2 days
- Cmax (ng/g) [4, 9]: (1.1 ± 0.27) ng/g
- Half-life ([2]; monoPAP IV dose, about 15 mg/kg each, PFCA product in whole blood): 312 ± 220 h
- Cmax ([2]; monoPAP IV dose): 0.93 ± 0.20 ng/g
- Tmax ([2]; monoPAP IV dose): 360 h

Compound: O=C(O)C(F)(F)C(F)(F)C(F)(F)C(F)(F)C(F)(F)C(F)(F)F [PFHpA, perfluoroheptanoic acid]
- Cmax ([1]; male, Sprague-Dawley, rat, in vivo, po, 50 mg/kg, diPAP gavage dose, whole blood, mean ± SE, read-out: Cmax): 2.6 ± 0.5 ng/g
- Tmax ([1]; male, Sprague-Dawley, rat, in vivo, po, 50 mg/kg, diPAP gavage dose, whole blood, read-out: Tmax (converted)): 24 h
- Cmax ([3]; male, Sprague-Dawley, rat, in vivo, 15 mg/kg, diPAP IV dose, whole blood, mean ± SE, values in parentheses < LOQ but > LOD, read-out: Cmax): 7.3 ± 0.6 ng/g
- Tmax ([3]; male, Sprague-Dawley, rat, in vivo, 15 mg/kg, diPAP IV dose, whole blood, read-out: Tmax (converted)): 4 h
- Tmax ([4]; male, Sprague-Dawley, rat, in vivo, po, 50 mg/kg, monoPAP gavage dose, whole blood, read-out: Tmax (converted)): 1 days
- Cmax ([4]; male, Sprague-Dawley, rat, in vivo, po, 50 mg/kg, monoPAP gavage dose, whole blood, values in parentheses < LOQ but > LOD, read-out: Cmax): 9 ± 2.2 ng/g
- Cmax ([2]; male, Sprague-Dawley, rat, in vivo, 15 mg/kg, monoPAP IV dose, read-out: Cmax): 2.3 ± 0.7 ng/g
- Tmax ([2]; male, Sprague-Dawley, rat, in vivo, 15 mg/kg, monoPAP IV dose, read-out: Tmax (converted)): 24 h

Compound: O=C(O)C(F)(F)C(F)(F)C(F)(F)C(F)(F)C(F)(F)C(F)(F)C(F)(F)C(F)(F)F [PFNA, perfluorononanoate]
- Tmax ([1]; diPAP gavage dose, whole blood): 190 h
- Cmax [1, 6]: 6.4 ± 5.2 ng/g
- Tmax ([3]; diPAP IV dose, whole blood): 360 h
- Cmax (ng/g) [3, 7]: (4.1 ± 3.3) ng/g
- Tmax [4, 8]: 1 day days
- Cmax (ng/g) [4, 9]: (1.5 ± 0.09) ng/g
- Cmax ([2]; monoPAP IV dose): 2.3 ± 0.4 ng/g
- Tmax ([2]; monoPAP IV dose): 360 h

Compound: O=C(O)C(F)(F)C(F)(F)C(F)(F)C(F)(F)F [PFPeA, perfluoropentanoic acid]
- Tmax ([3]; diPAP IV dose, whole blood): 2 h
- Cmax [3, 7]: 7.1 ± 0.6 ng/g
- Cmax ([2]; monoPAP IV dose): 2.1 ± 0.8 ng/g
- Tmax ([2]; monoPAP IV dose): 6 h
